Tests used:
NF-kB = experiment: NF-κB INHIBITION TEST (NF-kB luciferase reporter, TNFα-stimulated H9c2 cells); assay type: cell-based, Rat
Experimental: The NF-κB INHIBITION TEST was conducted as follows. Rat cardiac myoblasts H9c2 cells were purchased from ATCC (Manassas, Va.). Cultures were maintained in Dulbecco's modified Eagle's medium (DMEM, Invitrogen Life Technologies, Carlsbad, Calif.) supplemented with 10% fetal bovine serum, 100 units/ml penicillin, and 50 ug/ml streptomycin (Invitrogen life technologies, Carlsbad, Calif.). 1×10^4 cells grown in 96-well plates were transiently transfected with 0.45 ug total DNA per well using Lipofectamine 2000 (Invitrogen life technologies, Carlsbad, Calif.). In all transfections, a construct with the thymidine kinase promoter and the Renilla luciferase reporter gene (pRL-TK, Promega, Madison Wis.) was included as an internal control in addition to the NF-kB luciferase promoter. One day after transfection, cells were treated with the indicated samples (in DMSO as vehicle) at indicated concentrations and stimulated with 100 ng/mL of Tumor Necrosis Factor-α (TNFα, Sigma-Aldrich, St Louis, Mo.) for approximately 24 hours before they were lysed for luciferase assays, using Dual-Luciferase Reporter System from Promega (Madison, Wis.), following manufacturer's protocol. Briefly, the firefly luciferase activity was measured first (representing NF-kB promoter activity), followed by the renilla luciferase (internal control), using luminometer LMAX, from Molecular Devices (Sunnyvale, Calif.). The ratio of these two luciferase activities (RLU) was used to evaluate the activity of each promoter:
NF-κB Inhibition=[1−(RLUsample/RLUcontrol)]*100
where RLUsample and RLUcontrol are the normalized luciferase activity ratios of the sample and control, respectively.
Percent NF-kB Inhibition is also reported.

Collagenase = Collagenase inhibition, EnzCheck assay; assay type: biochemical
Experimental: Collagenase inhibition was measured using EnzCheck® assay (Molecular Probes, Eugene, Oreg.) according to the manufacturer's instructions. Test materials were evaluated over a wide range of concentrations. Fluorescence was measured after 2-3 hours using a microplate reader set with the wavelength combination 485/530 nm

[1] = 0.0001% by weight of alkylphenol
[2] = 0.001% by weight of alkylphenol
[3] = 10 ug/mL, TNFα 100 ng/ml stimulated H9c2 cells

| Structure (SMILES) | Percent NF-kB Inhibition relative to vehicle (NF-kB; 0.2 ug/ml, vehicle 0.1% DMSO) [%] | Percent NF-kB Inhibition relative to vehicle (NF-kB; 0.5 ug/ml, vehicle 0.1% DMSO) [%] | Percent NF-kB Inhibition relative to vehicle (NF-kB; 1 ug/ml, vehicle 0.1% DMSO) [%] | Percent NF-kB Inhibition relative to vehicle (NF-kB; 2 ug/ml, vehicle 0.1% DMSO) [%] | Percent NF-kB Inhibition relative to vehicle (NF-kB; 4 ug/ml, vehicle 0.1% DMSO) [%] | Percent Inhibition of Collagenase (Collagenase; [1]) [%] | Percent Inhibition of Collagenase (Collagenase; [2]) [%] | Percent Inhibition of Collagenase (Collagenase; 0.01% by weight of alkylphenol) [%] | Percent Inhibition of Collagenase (Collagenase; 0.1% by weight of alkylphenol) [%] | Percent Inhibition of Collagenase (Collagenase; 1% by weight of alkylphenol) [%] | Percent NF-kB Inhibition relative to vehicle (NF-kB; [3]) | Percent NF-kB Inhibition relative to vehicle (NF-kB; 25 ug/mL, TNFα 100 ng/ml stimulated H9c2 cells) |
| --- | --- | --- | --- | --- | --- | --- | --- | --- | --- | --- | --- | --- |
| Oc1ccc(/C=C/c2cc(O)cc(/C=C/c3ccc(O)cc3)c2)cc1 [1-hydroxyl 3,5-bis(4′hydroxylstyryl)benzene] | 0.5 | 22.1 | 51.7 | 71.0 | 96.1 |  |  |  |  |  |  |  |
| CCCCCc1ccc(O)cc1 [4-amylphenol] |  |  |  |  |  | 29.42 | 29.30 | 34.19 | 44.66 | 53.33 | 54.2% |  |
| CCCCc1ccc(O)cc1 [4-butylphenol] |  |  |  |  |  | 26.55 | 23.16 | 26.81 | 54.38 | 59.51 |  |  |
| CCCCCCc1ccc(O)cc1 [4-hexylphenol] |  |  |  |  |  | 19.57 | 16.90 | 27.67 | 28.82 | 46.13 |  |  |
| CCCc1ccc(O)cc1 [4-propylphenol, reference compound] |  |  |  |  |  |  |  |  |  |  | (−49.2%) | (−59.1%) |

— patent US20140005276A1, “COMPOSITIONS COMPRISING SUBSTITUTED PHENOLS AND TOPICAL APPLICATION THEREOF” (priority 2012, published 2014)
